Legend:
[1] = biological target: TAF1 (Homo sapiens, UniProt P21675); test: AlphaScreen selectivity screen, TAF1; assay type: binding
[2] = biological target: T1, endogenous MLLT1 in MV4;11 cells (Homo sapiens, UniProt Q03111); test: Cellular thermal shift assay (CETSA), MV4;11 cells; assay type: cell-based; details: up to 10 μM
T1 construct: with endogenous MLLT1 in MV4;11 cells; endogenous in cells; host or cells: MV4;11
Protocol: Supplementary Table 2. Thermal stabilisation of compound 1, 92 and Bromosporine with recombinant human bromodomain proteins. *50 µM compound concentration. †10 µM compound […]
II.VIII Cellular Thermal Shift Assay[6]
HEK293 and MV4;11 cells were cultured at 37 °C in a humidified 5% CO2 atmosphere in DMEM Medium containing 10% FBS, respectively. Cells were grown until approximately […]
DMSO final concentrati on) for 30 minutes. Cells were then collected, washed with PBS, transferred in PCR tubes, and pelleted by centrifugation (300 g, 3 min, RT.) The PBS was removed, and the cell pellets heated at the indicated temperature for 3 minutes in a PCR machine (UNO96 , VMR) and then placed on ice. Lysis buffer (50 mM Tris pH 7.5, 0.8% v/v NP-40, 5% v/v glycerol, 1.5 mM MgCl2, 100 mM NaCl, 25 mM NaF, 1mM Na3VO4, 1mM PMSF, 1mM DTT, 10 μg/mL TLCK, 1 μg/mL Leupeptin, 1 μg/mL Aprotinin, 1 μg/mL soy bean trypsin, ≥250 units/ mL Benzonase) was added and the cells lysed by 3 freeze -thaw cycles in liquid nitrogen. Aggregated proteins were removed by centrifugation (17000 g, 20 min, 4 °C) and the protein concentration of the retained soluble fraction determined. 4× sample loading buffer (Bio-Rad) containing 20% v/v DTT was added and samples were heated for 6 min at 90 °C prior to separation by SDS -PAGE. […]

[3] = biological target: CECR2 (Homo sapiens, UniProt Q9BXF3); test: AlphaScreen selectivity screen, CECR2; assay type: binding
Sequence of CECR2 (Q9BXF3 434-538 limits assumed): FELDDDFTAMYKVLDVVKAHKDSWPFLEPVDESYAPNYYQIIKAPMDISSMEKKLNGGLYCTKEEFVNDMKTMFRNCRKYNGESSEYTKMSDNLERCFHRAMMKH
Text: (§1) IC50 (µM) IC50 (µM) IC50 (µM) IC50 (µM) (µM) (µM) (µM)
(§2) Supplementary Table 1. […]

[4] = biological target: T2, YEATS2 (Homo sapiens, UniProt Q9ULM3); test: AlphaScreen selectivity screen, YEATS2; assay type: binding
T2 construct: made in house; host or cells: E. coli Rosetta
T2 sequence (Q9ULM3 200-345 limits assumed): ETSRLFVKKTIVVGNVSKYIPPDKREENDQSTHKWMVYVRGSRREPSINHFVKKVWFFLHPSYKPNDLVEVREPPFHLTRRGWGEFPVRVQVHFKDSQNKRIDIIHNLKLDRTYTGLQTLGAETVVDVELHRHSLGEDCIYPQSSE
Text: as §1, §2

[5] = biological target: T3, MLLT3 (Homo sapiens, UniProt P42568); test: AlphaScreen assay, MLLT3; assay type: binding; details: Figure 1
T3 construct: made in house; host or cells: E. coli Rosetta
T3 sequence (P42568 1-138 limits assumed): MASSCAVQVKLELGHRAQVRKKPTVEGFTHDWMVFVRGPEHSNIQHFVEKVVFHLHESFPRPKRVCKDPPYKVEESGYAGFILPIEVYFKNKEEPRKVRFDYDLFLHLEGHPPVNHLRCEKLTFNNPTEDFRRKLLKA
Protocol: Figure 1 Identified hit MLLT1/3 inhibitor compound 1.
(§3) II.IV Protein Expression and Purification
Human bromodomains were cloned, expressed and purified as previously described. The cloning, expression and purification of human YEATS domains are described as follows; Sequences for the wild type YEATS domains of MLLT1, MLLT3, GAS41 and YEATS2 were cloned into expression vectors (Table S1). E. coli Rosetta cells were grown in TB medium at 37°C. Overexpression was induced after five hours by addition of IPTG to a final concentration of 0.4 mM and cells were incubated at 17°C overnight. Cells were harvested by centrifugation and the cell pellet was resuspended in cold binding buffer (50 mM Tris at pH 7.5, 500 mM NaCl, 20 mM imidazole, 2 mM DTT) on a magnetic stirring plate at 4°C. The suspension was lysed using an Avestin EmulsiFlex-C5 homogeniser (1 pass without pressure, four passes with pressure between 1000-1500 bar). The lysate was clarified via centrifugation at 16,000 rpm at 4°C for 1 hour (JLA-16 rotor in Beckmann Coulter Avanti J-26S XP centrifuge). The supernatant was loaded onto a standard NiNTA column (HisTrap FF, 5 ml, GE Healthcare Lifesciences) on an ÄKTAxpress system (GE). […] Protein concentration was quantified via extinction at […] (NanoDrop ND-1000 Spectrophotometer) and protein identity was verified via SDS-PAGE and LC/MS. […]

[6] = biological target: T4, MLLT1 YD (Homo sapiens, UniProt Q03111); test: AlphaScreen (AS) assay, MLLT1 YEATS domain; assay type: binding
T4 construct: made in house; host or cells: E. coli Rosetta
T4 sequence (Q03111 1-138 limits assumed): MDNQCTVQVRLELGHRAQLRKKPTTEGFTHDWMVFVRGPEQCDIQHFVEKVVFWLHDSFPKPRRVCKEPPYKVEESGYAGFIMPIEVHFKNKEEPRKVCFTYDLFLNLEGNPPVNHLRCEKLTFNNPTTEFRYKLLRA
Protocol: as §3
Human bromodomains were cloned, expressed and purified as previously described. The cloning, expression and purification of human YEATS domains are described as follows; Sequences for the wild type YEATS domains of MLLT1, MLLT3, GAS41 and YEATS2 were cloned into expression vectors (Table S1). E. coli Rosetta cells were grown in TB medium at 37°C. Overexpression was induced after five hours by addition of IPTG to a final concentration of 0.4 mM and cells were incubated at 17°C overnight. Cells were harvested by centrifugation and the cell pellet was resuspended in cold binding buffer (50 mM Tris at pH 7.5, 500 mM NaCl, 20 mM imidazole, 2 mM DTT) on a magnetic stirring plate at 4°C. The suspension was lysed using an Avestin EmulsiFlex-C5 homogeniser (1 pass without pressure, four passes with pressure between 1000-1500 bar). The lysate was clarified via centrifugation at 16,000 rpm at 4°C for 1 hour (JLA-16 rotor in Beckmann Coulter Avanti J- […]
The supernatant was loaded onto a standard NiNTA column (HisTrap
FF, 5 ml, GE Healthcare Lifesciences) on an ÄKTAxpress system (GE). After washing with binding buffer, the target protein was eluted at 300 mM imidazole. The eluted peak fractions were pooled and concentrated to 5 ml (Amicon concentrators, 10 kDa molecular weight cut off (MWCO)) and then separated via size exclusion chromatography (buffered with 20 mM Tris at pH 7.5, 500 mM NaCl, 2 mM DTT) using a GE Superdex 75 column on an […]
(NanoDrop ND-1000 Spectrophotometer) and protein identity was verified via SDS-PAGE and LC/MS. Pooled fractions were then again concentrated to at least 2 mg/ml and stored at […]
(1 picture or pasted object on this page, not shown here)

Sequence of TAF1 (P21675 1522-1656): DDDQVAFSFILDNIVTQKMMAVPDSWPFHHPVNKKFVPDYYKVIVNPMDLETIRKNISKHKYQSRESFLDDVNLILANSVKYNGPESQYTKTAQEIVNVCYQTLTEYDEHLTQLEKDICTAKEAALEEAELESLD
T1 sequence (Q03111 whole entry): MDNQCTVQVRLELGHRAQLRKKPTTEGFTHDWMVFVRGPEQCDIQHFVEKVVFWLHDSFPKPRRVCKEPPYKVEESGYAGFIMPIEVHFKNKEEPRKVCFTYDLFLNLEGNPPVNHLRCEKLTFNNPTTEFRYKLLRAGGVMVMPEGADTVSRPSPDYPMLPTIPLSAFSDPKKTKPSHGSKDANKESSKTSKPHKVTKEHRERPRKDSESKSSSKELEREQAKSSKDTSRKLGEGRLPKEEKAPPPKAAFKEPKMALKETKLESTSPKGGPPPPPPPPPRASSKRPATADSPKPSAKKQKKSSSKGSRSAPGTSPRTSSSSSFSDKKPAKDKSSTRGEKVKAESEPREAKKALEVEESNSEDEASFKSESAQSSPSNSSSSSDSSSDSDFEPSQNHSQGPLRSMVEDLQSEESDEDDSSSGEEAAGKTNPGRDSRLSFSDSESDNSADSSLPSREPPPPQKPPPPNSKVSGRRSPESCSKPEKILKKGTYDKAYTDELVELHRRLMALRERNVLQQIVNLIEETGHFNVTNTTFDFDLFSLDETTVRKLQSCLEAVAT

Structure (SMILES) | inhibition of TAF1 ([1]; 10 μM using AS) | IC50 ([1]; AlphaScreen selectivity screen) [nM] | thermal stabilisation of MLLT1 (CETSA) [2] | inhibition of CECR2 ([3]; 10 μM using AS) | IC50 ([3]; AlphaScreen selectivity screen, read-out: CECR2 (2) IC50) [nM] | IC50 [4] [nM] | IC50 [5] [nM] | IC50 [6] [nM]
C[C@H]1CCCN1Cc1nc2cc(NC(=O)c3ccc4c(cnn4C)c3)ccc2[nH]1 [Compound 92] | no inhibition | > 10000 | stabilisation of MLLT1 | no inhibition | > 10000 | > 10000 |  | 
COC(=O)c1ccc(C(=O)Nc2ccc3[nH]c(CN4CCCCC4)nc3c2)cc1 [Compound 1] |  |  |  |  |  |  | 1000 | 2100 ± 780

Reference: PMC6348381, “Discovery of an MLLT1/3 YEATS Domain Chemical Probe” (Angewandte Chemie (International Ed. in English), 2018)
